Assay results reported in patent publication US6846807B1, “Colorectal neoplasia prophylaxis” (Board of Regents, The University of Texas System, priority 2003, dated 2005).

How the values were obtained:
[1] = test system: chick embryo chorioallantoic membranes (CAM); settings: cited from earlier work
phospholipase C (PLC) = settings: cited from earlier work
[2] = test system: cultured human endothelial cells; settings: cited from earlier work
Smad3 mutant mice = experiment: Colorectal tumor development in Smad3 mutant mice given antibiotics in drinking water; format: in vivo
Experimental: I. Orally-delivered aminoglycosides reduce development of colon cancer in animal models predisposed to colon neoplasia. Smad3 mutant and APC/MIN mice are fed on a standard laboratory diet, with aminoglycoside antibiotics added to the water. […] Metronidazole was diluted in sterile drinking water to a final concentration of 0.5 mg/ml. The same concentrations are used for either combined or separate drug trials.
Smad3 mutant mice are maintained in 129Sv strain; APC/MIN mice are maintained in C57BL/6J. Both Smad3 mutant and APC/MIN mice are started on antibiotics at 5 weeks of age (range: 4-6 weeks). Mice are monitored and scored for survival and visible rectal tumors. Mice are sacrificed when showing severe distress (typically rectal prolapse with significant dehydration,. hypokinesis, cachexia). At sacrifice mice are dissected and their overall state assessed. Large intestines were harvested, opened longitudinally, and tumor number, location, and size recorded.

colorectal polyps = experiment: Double-blind, placebo-controlled study of colorectal polyps in patients with familial adenomatous polyposis; format: in vivo, human; settings: 1 or 2 g/day orally, after six months, change from base line
Experimental: II. […] All patients undergo endoscopy at the beginning and end of the study. The number and size of polyps is determined from photographs and videotapes; the response to treatment is expressed as the mean percent change from base line.

colorectal adenomas = experiment: Double-blind, placebo-controlled trial of colorectal adenomas in patients with previous colorectal cancer; format: in vivo, human; settings: daily use of 1 or 2 g, patients with a history of colorectal cancer
From the text: III. Orally-delivered aminoglycosides reduce development of colorectal adenomas in patients with previous colorectal cancer. […] We determine the proportion of patients with adenomas, the number of recurrent adenomas, and the time to the development of adenoma between randomization and subsequent colonoscopic examinations. Relative risks are adjusted for age, sex, cancer stage, the number of colonoscopic examinations, and the time to first colonoscopy.

[3] = test system: cultured angiogenin-secreting tumor cells; settings: injected, mice; cited from earlier work
[4] = test system: azoxymethane (AOM) and 1,2-dimethyl hydrazine (DMH)-induced colon cancers; settings: AOM and DMH chemical carcinogenesis models; cited from earlier work

COc1ccc2c(c1)CC[C@@H]1[C@@H]2CC[C@]2(C)[C@@H](NCCCCCCN3C(=O)C=CC3=O)CC[C@@H]12 [U-73122]
angiogenin-induced angiogenesis / anti-angiogenic activity [1]: similarly inhibited angiogenin-induced cell proliferation and angiogenesis | PLC inhibition (phospholipase C (PLC)): PLC inhibitor | angiogenin-induced cell proliferation [2]: similarly inhibited angiogenin-induced cell proliferation and angiogenesis

NCC[C@H](O)C(=O)N[C@@H]1C[C@H](N)[C@@H](O[C@H]2O[C@H](CN)[C@@H](O)[C@H](O)[C@H]2O)[C@H](O)[C@H]1O[C@H]1O[C@H](CO)[C@@H](O)[C@H](N)[C@H]1O [amikacin]
angiogenin-induced angiogenesis / anti-angiogenic activity [1]: lack anti-angiogenic activity

Cc1ncc([N+](=O)[O-])n1CCO [metronidazole]
tumor development compared with non-treated controls (Smad3 mutant mice; 0.5 mg/ml in drinking water): not significantly different from non-treated controls

NC[C@@H]1O[C@H](O[C@H]2[C@@H](O)[C@H](O[C@@H]3[C@@H](O)[C@H](N)C[C@H](N)[C@H]3O[C@H]3O[C@H](CO)[C@@H](O)[C@H](O)[C@H]3N)O[C@@H]2CO)[C@H](N)[C@@H](O)[C@@H]1O [paromomycin]
reduction in the mean number of colorectal polyps (colorectal polyps): ~30% | reduction in the polyp burden (the sum of polyp diameters) (colorectal polyps): ~30% | angiogenin-induced angiogenesis / anti-angiogenic activity [1]: lack anti-angiogenic activity | occurrence of new colorectal adenomas (colorectal adenomas): decreases the occurrence of new colorectal adenomas

[H]/N=C(/N)N[C@H]1[C@H](O)[C@@H](O)[C@H](O[C@@H]2O[C@@H](C)[C@](O)(C=O)[C@H]2O[C@@H]2O[C@@H](CO)[C@H](O)[C@@H](O)[C@@H]2NC)[C@@H](N/C(N)=N\[H])[C@@H]1O [streptomycin]
angiogenin-induced angiogenesis / anti-angiogenic activity [1]: lack anti-angiogenic activity

gentamicin
angiogenin-induced angiogenesis / anti-angiogenic activity [1]: lack anti-angiogenic activity

neomycin
reduction in the mean number of colorectal polyps (colorectal polyps): ~30% | reduction in the polyp burden (the sum of polyp diameters) (colorectal polyps): ~30% | angiogenin-induced angiogenesis / anti-angiogenic activity [1]: able to reduce angiogenin-induced cell proliferation and angiogenesis | mice in which development of tumors was prevented (Smad3 mutant mice; oral treatment, at 24 weeks, 9 of 10 untreated mice developed colorectal tumors): 11 of 12 | PLC inhibition (phospholipase C (PLC)): inhibits PLC | growth of transplanted angiogenin-secreting tumor cells [3]: able to reduce growth | incidence of colon adenocarcinomas [4]: may actually increase the incidence of colon adenocarcinomas | angiogenin-induced cell proliferation [2]: able to reduce angiogenin-induced cell proliferation and angiogenesis | occurrence of new colorectal adenomas (colorectal adenomas): decreases the occurrence of new colorectal adenomas
